Experimental data taken from ChEMBL document CHEMBL1154811, “Dehydroconicasterol and aurantoic acid, a chlorinated polyene derivative, from the Indonesian sponge Theonella swinhoei” (J Nat Prod, 2009).

Key:
Format in all cases: functional, cell-based
[1] = system: C6; assay: Cytotoxicity against rat C6 cells
[2] = system: HeLa; assay: Cytotoxicity against human HeLa cells
[3] = system: H9c2; assay: Cytotoxicity against rat H9c2 cells

Measured: IC50

C/C(Cl)=C/C=C/C=C/C=C/C=C/C(=O)O [AURANTOIC ACID]
> 70 µM: [1] | [2] | [3]

C/C(Cl)=C/C=C/C=C/C=C/C=C/C(O)=C1\C(=O)[C@H](CC(N)=O)N([C@@H]2OC[C@@H](O)[C@H](O)[C@H]2O)C1=O [AURANTOSIDE G]
> 70 µM: [1] | [2] | [3]

C=C1C2CCC3=C4CC[C@H]([C@H](C)CC[C@@H](C)C(C)C)[C@@]4(C)CC[C@@H]3[C@@]2(C)CC[C@@H]1O (stereo not given in full) [CONICASTEROL]
> 70 µM: [1] | [2] | [3]

C=C(CC[C@@H](C)[C@H]1CCC2=C3CCC4C(=C)[C@@H](O)CC[C@]4(C)[C@H]3CC[C@@]21C)C(C)C (stereo not given in full) [DEHYDROCONICASTEROL]
> 70 µM: [1] | [2] | [3]

C=C1C2CCC3=C4CC[C@H]([C@H](C)CC[C@H](CC)C(C)C)[C@@]4(C)CC[C@@H]3[C@@]2(C)CC[C@@H]1O (stereo not given in full) [THEONELLASTEROL]
> 70 µM: [1] | [2] | [3]
